Laboratory results taken from patent publication US20230278972A1, “SUBSTITUTED HALOALKYL SULFONANILIDE HERBICIDES” (FMC Corporation, priority 2020, published 2023).

How the values were obtained:
Format in all cases: in vivo
[1] = system: galium (catchweed bedstraw, Galium aparine); assay: Test A1 postemergence, galium; details: for Plant response rating, Galium: Postemergence
Text: (§1) Seeds of plant species selected from, blackgrass (Alopecurus myosuroides), corn (Zea mays), Foxtail, Giant (giant foxtail, Setaria faberi), goosegrass (Eleusine indica), kochia (Bassia scoparia), Oat, Wild (wild oat, Avena fatua), Pigweed, Palmer (palmer amaranth, palmer pigweed, Amaranthus palmeri), ragweed (common ragweed, Ambrosia artemisiifolia), Ryegrass, Italian (Italian ryegrass, Lolium multiflorum), soybean (Glycine max), and wheat (Triticum aestivum) were planted into a blend of loam soil and sand and treated preemergence with a directed soil spray using test chemicals formulated in a non-phytotoxic solvent mixture which included a surfactant. At the same time, plants selected from these crop and weed species and also galium (catchweed bedstraw, Galium aparine) and horseweed (Erigeron canadensis) were planted in pots containing the same blend of loam soil and sand and treated with postemergence applications of test chemicals formulated in the same manner. Plants ranged in height from 2 to 10 cm and were in the one- to two-leaf stage for the postemergence treatment. […] A dash (-) response means no test result.

[2] = system: Pigweed, Palmer (palmer amaranth, palmer pigweed, Amaranthus palmeri); assay: Test A1 postemergence, Pigweed, Palmer; details: for Plant response rating, Pigweed, Palmer: Postemergence
Text: as §1

[3] = system: soybean (Glycine max); assay: Test A1 preemergence, soybean
Text: as §1

[4] = system: Foxtail, Giant (giant foxtail, Setaria faberi); assay: Test A1 preemergence, Foxtail, Giant
Text: as §1

[5] = system: goosegrass (Eleusine indica); assay: Test A1 preemergence, goosegrass
Text: as §1

[6] = system: ragweed (common ragweed, Ambrosia artemisiifolia); assay: Test A1 preemergence, ragweed
Text: as §1

[7] = system: Oat, Wild (wild oat, Avena fatua); assay: Test A1 preemergence, Oat, Wild
Text: as §1

[8] = system: Ryegrass, Italian (Italian ryegrass, Lolium multiflorum); assay: Test A1 preemergence, Ryegrass, Italian
Text: as §1

[9] = system: kochia (Bassia scoparia); assay: Test A1 postemergence, kochia; details: for Plant response rating, Kochia: Postemergence
Text: as §1

[10] = system: goosegrass (Eleusine indica); assay: Test A1 postemergence, goosegrass; details: for Plant response rating, Goosegrass: Postemergence
Text: as §1

[11] = system: wheat (Triticum aestivum); assay: Test A1 postemergence, wheat; details: for Plant response rating, Wheat: Postemergence
Text: as §1

[12] = system: barnyardgrass (Echinochloa crus-galli); assay: Test B1 flooded paddy test, barnyardgrass; details: 250 g ai/ha, Flood, applied to paddy water, 2-leaf stage, visually evaluated after 10 to 14 days
Text: (§2) A dash (-) response means no test result.

[13] = system: wheat (Triticum aestivum); assay: Test A1 preemergence, wheat
Text: as §1

[14] = system: blackgrass (Alopecurus myosuroides); assay: Test A1 postemergence, blackgrass; details: Postemergence, 0 to 100 scale (0 no effect, 100 complete control)
Text: as §1

[15] = system: ragweed (common ragweed, Ambrosia artemisiifolia); assay: Test A1 postemergence, ragweed; details: for Plant response rating, Ragweed: Postemergence
Text: as §1

[16] = system: kochia (Bassia scoparia); assay: Test A1 preemergence, kochia
Text: as §1

[17] = system: blackgrass (Alopecurus myosuroides); assay: Test A1 preemergence, blackgrass
Text: as §1

[18] = system: rice (Oryza sativa); assay: Test B1 flooded paddy test, rice; details: 250 g ai/ha, Flood, applied to paddy water, 2-leaf stage, visually evaluated after 10 to 14 days
Text: as §2

[19] = system: Foxtail, Giant (giant foxtail, Setaria faberi); assay: Test A1 postemergence, Foxtail, Giant; details: for Plant response rating, Foxtail, Giant: Postemergence
Text: as §1

[20] = system: Pigweed, Palmer (palmer amaranth, palmer pigweed, Amaranthus palmeri); assay: Test A1 preemergence, Pigweed, Palmer
Text: as §1

[21] = system: Ryegrass, Italian (Italian ryegrass, Lolium multiflorum); assay: Test A1 postemergence, Ryegrass, Italian; details: for Plant response rating, Ryegrass, Italian: Postemergence
Text: as §1

[22] = system: corn (Zea mays); assay: Test A1 postemergence, corn; details: Postemergence
Text: as §1

[23] = system: corn (Zea mays); assay: Test A1 preemergence, corn
Text: as §1

[24] = system: soybean (Glycine max); assay: Test A1 postemergence, soybean; details: for Plant response rating, Soybean: Postemergence
Text: as §1

[25] = system: ducksalad (Heteranthera limosa); assay: Test B1 flooded paddy test, ducksalad; details: 250 g ai/ha, Flood, applied to paddy water, 2-leaf stage, visually evaluated after 10 to 14 days
Text: as §2

[26] = system: Oat, Wild (wild oat, Avena fatua); assay: Test A1 postemergence, Oat, Wild; details: for Plant response rating, Oat, Wild: Postemergence
Text: as §1

[27] = 31 g ai/ha, postemergence, 0 to 100 scale (0 no effect, 100 complete control)
[28] = 31 g ai/ha, 0 to 100 scale (0 no effect, 100 complete control)
[29] = 125 g ai/ha, 0 to 100 scale, 0 no effect, 100 complete control
[30] = 31 g ai/ha, 0 to 100 scale (0 no effect, 100 complete control), 10 days

For COC1CCN(C(=O)c2cc(NS(=O)(=O)C(F)(F)F)c(C)c(C)c2C)CC1 [Compound 367], the “Galium plant response rating” value [1, 27] was 50, the “Plant response rating, Galium” value ([1]; 125 g ai/ha, 0 to 100 scale) was 100 and the “Pigweed, Palmer plant response rating” value [2, 27] was 40. For the same compound, the “Plant response rating, Pigweed, Palmer” value ([2]; 125 g ai/ha, 0 to 100 scale) was 40, the “Plant response rating, Soybean” value [3, 28] was 0 and the “Plant response rating, Soybean” value [3, 29] was 90. The “Plant response rating, Foxtail, Giant” value [4, 28] was 90, the “Plant response rating, Foxtail, Giant” value [4, 29] was 100 and the “Plant response rating, Goosegrass” value [5, 28] was 60. For the same compound, the “Plant response rating, Goosegrass” value [5, 29] was 80, the “Plant response rating, Ragweed” value [6, 28] was 20 and the “Plant response rating, Ragweed” value [6, 29] was 90. The “Plant response rating, Oat, Wild” value [7, 28] was 20, the “Plant response rating, Oat, Wild” value [7, 29] was 30 and the “Plant response rating, Ryegrass, Italian” value [8, 28] was 0. The “Plant response rating, Ryegrass, Italian” value [8, 29] was 20, the “Kochia plant response rating” value [9, 27] was 20 and the “Plant response rating, Kochia” value ([9]; 125 g ai/ha, 0 to 100 scale) was 30. For the same compound, the “Goosegrass plant response rating” value [10, 27] was 10, the “Plant response rating, Goosegrass” value ([10]; 125 g ai/ha, 0 to 100 scale) was 70 and the “Wheat plant response rating” value [11, 27] was 0. The “Plant response rating, Wheat” value ([11]; 125 g ai/ha, 0 to 100 scale) was 20, the “Plant response rating, Barnyardgrass (0 to 100 scale, 0 is no effect, 100 is complete control)” value [12] was 60 and the “Plant response rating, Wheat” value [13, 28] was 10. For the same compound, the “Plant response rating, Wheat” value [13, 29] was 40, the “Plant response rating, Blackgrass” value ([14]; 31 g ai/ha, 10 days) was 0 and the “Plant response rating, Blackgrass” value ([14]; 125 g ai/ha) was 0. For the same compound, the “Ragweed plant response rating” value [15, 27] was 50, the “Plant response rating, Ragweed” value ([15]; 125 g ai/ha, 0 to 100 scale) was 70 and the “Plant response rating, Kochia” value [16, 28] was 0. For the same compound, the “Plant response rating, Kochia” value [16, 29] was 20, the “Plant response rating, Blackgrass” value [17, 28] was 0 and the “Plant response rating, Blackgrass” value [17, 29] was 0. The “Plant response rating, Rice (0 to 100 scale, 0 is no effect, 100 is complete control)” value [18] was 15, the “Foxtail, Giant plant response rating” value [19, 27] was 10 and the “Plant response rating, Foxtail, Giant” value ([19]; 125 g ai/ha, 0 to 100 scale) was 90. The “Plant response rating, Pigweed, Palmer” value [20, 28] was 80, the “Plant response rating, Pigweed, Palmer” value [20, 29] was 100 and the “Ryegrass, Italian plant response rating” value [21, 27] was 0. For the same compound, the “Plant response rating, Ryegrass, Italian” value ([21]; 125 g ai/ha, 0 to 100 scale) was 0, the “Plant response rating, Corn” value [22, 30] was 0 and the “Plant response rating, Corn” value ([22]; 125 g ai/ha, 0 to 100 scale) was 70. The “Plant response rating, Corn” value [23, 28] was 10, the “Plant response rating, Corn” value [23, 29] was 90 and the “Soybean plant response rating” value [24, 27] was 50. For the same compound, the “Plant response rating, Soybean” value ([24]; 125 g ai/ha, 0 to 100 scale) was 80, the “Plant response rating, Ducksalad (0 to 100 scale, 0 is no effect, 100 is complete control)” value [25] was 80 and the “Oat, Wild plant response rating” value [26, 27] was 0. The “Plant response rating, Oat, Wild” value ([26]; 125 g ai/ha, 0 to 100 scale) was 0.

In the case of CCC1ON=C(c2cc(NS(=O)(=O)C(F)(F)F)c(C)cc2C)C1CC (centres unmarked) [Compound 346], the “Plant response rating, Galium” value [1, 30] is reported as 70, the “Plant response rating, Galium” value ([1]; 125 g ai/ha, 0 to 100 scale) is reported as 100 and the “Plant response rating, Pigweed, Palmer” value [2, 30] is reported as 20. For the same compound, the “Plant response rating, Pigweed, Palmer” value ([2]; 125 g ai/ha, 0 to 100 scale) was 50, the “Plant response rating, Soybean” value [3, 28] was 50 and the “Plant response rating, Soybean” value [3, 29] was 50. For the same compound, the “Plant response rating, Foxtail, Giant” value [4, 28] was 60, the “Plant response rating, Foxtail, Giant” value [4, 29] was 100 and the “Plant response rating, Goosegrass” value [5, 28] was 90. For the same compound, the “Plant response rating, Goosegrass” value [5, 29] was 100, the “Plant response rating, Ragweed” value [6, 28] was 0 and the “Plant response rating, Ragweed” value [6, 29] was 10. For the same compound, the “Plant response rating, Oat, Wild” value [7, 28] was 30, the “Plant response rating, Oat, Wild” value [7, 29] was 80 and the “Plant response rating, Ryegrass, Italian” value [8, 28] was 50. For the same compound, the “Plant response rating, Ryegrass, Italian” value [8, 29] was 90, the “Plant response rating, Kochia” value [9, 30] was 30 and the “Plant response rating, Kochia” value ([9]; 125 g ai/ha, 0 to 100 scale) was 60. The “Plant response rating, Goosegrass” value [10, 30] was 40, the “Plant response rating, Goosegrass” value ([10]; 125 g ai/ha, 0 to 100 scale) was 90 and the “Plant response rating, Wheat” value [11, 30] was 30. The “Plant response rating, Wheat” value ([11]; 125 g ai/ha, 0 to 100 scale) was 70, the “Plant response rating, Barnyardgrass (0 to 100 scale, 0 is no effect, 100 is complete control)” value [12] was 90 and the “Plant response rating, Wheat” value [13, 28] was 20. The “Plant response rating, Wheat” value [13, 29] was 70, the “Plant response rating, Blackgrass” value ([14]; 31 g ai/ha, 10 days) was 0 and the “Plant response rating, Blackgrass” value ([14]; 125 g ai/ha) was 60. For the same compound, the “Plant response rating, Ragweed” value [15, 30] was 50, the “Plant response rating, Ragweed” value ([15]; 125 g ai/ha, 0 to 100 scale) was 70 and the “Plant response rating, Kochia” value [16, 28] was 30. For the same compound, the “Plant response rating, Kochia” value [16, 29] was 30, the “Plant response rating, Blackgrass” value [17, 28] was 80 and the “Plant response rating, Blackgrass” value [17, 29] was 90. The “Plant response rating, Rice (0 to 100 scale, 0 is no effect, 100 is complete control)” value [18] was 15, the “Plant response rating, Foxtail, Giant” value [19, 30] was 30 and the “Plant response rating, Foxtail, Giant” value ([19]; 125 g ai/ha, 0 to 100 scale) was 50. The “Plant response rating, Pigweed, Palmer” value [20, 28] was 100, the “Plant response rating, Pigweed, Palmer” value [20, 29] was 100 and the “Plant response rating, Ryegrass, Italian” value [21, 30] was 0. The “Plant response rating, Ryegrass, Italian” value ([21]; 125 g ai/ha, 0 to 100 scale) was 80, the “Plant response rating, Corn” value [22, 30] was 20 and the “Plant response rating, Corn” value ([22]; 125 g ai/ha, 0 to 100 scale) was 60. The “Plant response rating, Corn” value [23, 28] was 10, the “Plant response rating, Corn” value [23, 29] was 20 and the “Plant response rating, Soybean” value [24, 30] was 30. The “Plant response rating, Soybean” value ([24]; 125 g ai/ha, 0 to 100 scale) was 60, the “Plant response rating, Ducksalad (0 to 100 scale, 0 is no effect, 100 is complete control)” value [25] was 65 and the “Plant response rating, Oat, Wild” value [26, 30] was 20. The “Plant response rating, Oat, Wild” value ([26]; 125 g ai/ha, 0 to 100 scale) was 40.
